Experimental data as given in patent US4515708A, “Corrosion inhibitors” (Exxon Research & Engineering Co., priority 1982, dated 1985).

Assay: Corrosion Test 2 (dynamic wheel test; 3 wt% brine; CO2 + H2S)
Conditions: 2 ppm; 24 h, 70° C.
Experimental: (§1) For each compound three mild steel coupons (approximately 100 mm×12 mm×1.5 mm) were tested at each concentration. Each was contacted in a 250 ml bottle with 200 ml of a test fluid either saturated with a carbon dioxide at 20° C. or containing 100 ppm hydrogen sulphide or having both CO2 and H2 S present in those amounts. The test fluid was treated with a 30% aqueous solution of the compound under test at 2, 10, 50 and 250 ppm except where indicated to the contrary. The coupon was subjected to a dynamic wheel test in which the bottle was mounted radially on the periphery of 650 mm diameter wheel which was rotated at about 40 rpm for 24 hours at 70° C. The weight loss was obtained, and also measured in a control experiment where no inhibitor was present. From this the % protection was calculated as % reduction in weight loss.
Test Fluid: 200 ml 3 wt% brine
(§2) Corrosives: Saturated CO2 +100 ppm H2 S

Compound	% Protection [%]
CCCCCCCCNCCc1ccccn1 [Example 2]	37
CCCCCCCCCCNCCc1ccccn1 [Example 3]	7
CCCCCCCCCCCCCCNCCc1ccccn1 [Example 5]	3
CCCCCCCCCCCCCCCCNCCc1ccccn1 [Example 6]	20
NCCNCCc1ccccn1 [Example 13]	40
NCCCNCCc1ccccn1 [Example 14]	26
NCCNCCNCCNCCc1ccccn1 [Example 16]	37
CCCCCCCCCCCCCCCCNCCc1ccncc1 [Example 27]	40

Same assay, conditions: 10 ppm; 24 h, 70° C.

Compound	% Protection [%]
CCCCCCCCNCCc1ccccn1 [Example 2]	34
CCCCCCCCCCNCCc1ccccn1 [Example 3]	37
CCCCCCCCCCCCCCNCCc1ccccn1 [Example 5]	48
CCCCCCCCCCCCCCCCNCCc1ccccn1 [Example 6]	41
NCCNCCc1ccccn1 [Example 13]	42
NCCCNCCc1ccccn1 [Example 14]	64
NCCNCCNCCNCCc1ccccn1 [Example 16]	59
CCCCCCCCCCCCCCCCNCCc1ccncc1 [Example 27]	47

Same assay, conditions: 50 ppm; 24 h, 70° C.

Compound	% Protection [%]
CCCCCCCCNCCc1ccccn1 [Example 2]	84
CCCCCCCCCCNCCc1ccccn1 [Example 3]	91
CCCCCCCCCCCCCCNCCc1ccccn1 [Example 5]	93
CCCCCCCCCCCCCCCCNCCc1ccccn1 [Example 6]	93
NCCNCCc1ccccn1 [Example 13]	74
NCCCNCCc1ccccn1 [Example 14]	74
NCCNCCNCCNCCc1ccccn1 [Example 16]	81
CCCCCCCCCCCCCCCCNCCc1ccncc1 [Example 27]	84

Same assay, conditions: 250 ppm; 24 h, 70° C.

Compound	% Protection [%]
CCCCCCCCNCCc1ccccn1 [Example 2]	94
CCCCCCCCCCNCCc1ccccn1 [Example 3]	97
CCCCCCCCCCCCCCNCCc1ccccn1 [Example 5]	94
CCCCCCCCCCCCCCCCNCCc1ccccn1 [Example 6]	97
NCCNCCc1ccccn1 [Example 13]	89
NCCCNCCc1ccccn1 [Example 14]	90
NCCNCCNCCNCCc1ccccn1 [Example 16]	89
CCCCCCCCCCCCCCCCNCCc1ccncc1 [Example 27]	94

Assay: Corrosion Test 4 (dynamic wheel test; 3 wt% brine + Mentor 28; H2S)
Conditions: 2 ppm; 24 h, 70° C.
Experimental: as §1
(§3) Test fluid: 100 ml 3 wt% brine+100 ml Mentor 28
Corrosives: 100 ppm H2 S (prior nitrogen purge)

Compound	% Protection [%]
CCCCCCCCCCNCCc1ccccn1 [Example 3]	0
CCCCCCCCCCCCCCCCNCCc1ccccn1 [Example 6]	0
NCCNCCNCCNCCc1ccccn1 [Example 16]	10

Same assay, conditions: 10 ppm; 24 h, 70° C.

Compound	% Protection [%]
CCCCCCCCCCNCCc1ccccn1 [Example 3]	42
CCCCCCCCCCCCCCCCNCCc1ccccn1 [Example 6]	21
NCCNCCc1ccccn1 [Example 13]	40
NCCNCCNCCNCCc1ccccn1 [Example 16]	48

Same assay, conditions: 50 ppm; 24 h, 70° C.

Compound	% Protection [%]
CCCCCCCCCCNCCc1ccccn1 [Example 3]	65
CCCCCCCCCCCCCCCCNCCc1ccccn1 [Example 6]	58
NCCNCCNCCNCCc1ccccn1 [Example 16]	56

Same assay, conditions: 250 ppm; 24 h, 70° C.

Compound	% Protection [%]
CCCCCCCCCCNCCc1ccccn1 [Example 3]	76
CCCCCCCCCCCCCCCCNCCc1ccccn1 [Example 6]	70
NCCNCCc1ccccn1 [Example 13]	57
NCCNCCNCCNCCc1ccccn1 [Example 16]	61

Assay: Corrosion Test 1 (dynamic wheel test; 3 wt% brine/Mentor 28; CO2 + H2S)
Conditions: 2 ppm; 24 h, 70° C.; 30% solution
Experimental: as §1
Test fluid: 100 ml 3 wt% brine/100 ml Mentor 28 (Mentor®28 is a depolarised kerosene available from Exxon Chemical Company)
as §2

Compound	% Protection [%]
NCCc1ccccn1 [2-aminoethyl pyridine, reference compound]	0
CCc1ccccn1 [2-ethylpyridine, reference compound]	3
CCCCCCCCCCNCCc1ccccn1 [Example 3]	13
CCCCCCCCCCCCCCNCCc1ccccn1 [Example 5]	0
CCCCCCCCCCCCCCCCNCCc1ccccn1 [Example 6]	7
NCCNCCNCCNCCc1ccccn1 [Example 16]	32
CCCCCCCCCCCCCCCCNCCc1ccncc1 [Example 27]	39

Same assay, conditions: 2 ppm; * active material added as undiluted compound; 24 h, 70° C.

Compound	% Protection [%]
CCCCCCCCNCCc1ccccn1 [Example 2]	50
NCCNCCc1ccccn1 [Example 13]	43
NCCCNCCc1ccccn1 [Example 14]	47

Same assay, conditions: 10 ppm; 24 h, 70° C.; 30% solution

Compound	% Protection [%]
NCCc1ccccn1 [2-aminoethyl pyridine, reference compound]	45
CCc1ccccn1 [2-ethylpyridine, reference compound]	7
CCCCCCCCCCNCCc1ccccn1 [Example 3]	63
CCCCCCCCCCCCCCNCCc1ccccn1 [Example 5]	43
CCCCCCCCCCCCCCCCNCCc1ccccn1 [Example 6]	72
NCCNCCNCCNCCc1ccccn1 [Example 16]	72
CCCCCCCCCCCCCCCCNCCc1ccncc1 [Example 27]	69

Same assay, conditions: 10 ppm; * active material added as undiluted compound; 24 h, 70° C.

Compound	% Protection [%]
CCCCCCCCNCCc1ccccn1 [Example 2]	82
NCCNCCc1ccccn1 [Example 13]	67
NCCCNCCc1ccccn1 [Example 14]	70

Same assay, conditions: 50 ppm; 24 h, 70° C.; 30% solution

Compound	% Protection [%]
NCCc1ccccn1 [2-aminoethyl pyridine, reference compound]	55
CCc1ccccn1 [2-ethylpyridine, reference compound]	16
CCCCCCCCCCNCCc1ccccn1 [Example 3]	82
CCCCCCCCCCCCCCNCCc1ccccn1 [Example 5]	46
CCCCCCCCCCCCCCCCNCCc1ccccn1 [Example 6]	89
NCCNCCNCCNCCc1ccccn1 [Example 16]	81
CCCCCCCCCCCCCCCCNCCc1ccncc1 [Example 27]	84

Same assay, conditions: 50 ppm; * active material added as undiluted compound; 24 h, 70° C.

Compound	% Protection [%]
CCCCCCCCNCCc1ccccn1 [Example 2]	85
NCCNCCc1ccccn1 [Example 13]	82
NCCCNCCc1ccccn1 [Example 14]	70

Same assay, conditions: 250 ppm; 24 h, 70° C.; 30% solution

Compound	% Protection [%]
NCCc1ccccn1 [2-aminoethyl pyridine, reference compound]	86
CCc1ccccn1 [2-ethylpyridine, reference compound]	23
CCCCCCCCCCNCCc1ccccn1 [Example 3]	99
CCCCCCCCCCCCCCNCCc1ccccn1 [Example 5]	90
CCCCCCCCCCCCCCCCNCCc1ccccn1 [Example 6]	98
NCCNCCNCCNCCc1ccccn1 [Example 16]	89
CCCCCCCCCCCCCCCCNCCc1ccncc1 [Example 27]	96

Same assay, conditions: 250 ppm; * active material added as undiluted compound; 24 h, 70° C.

Compound	% Protection [%]
CCCCCCCCNCCc1ccccn1 [Example 2]	89
NCCNCCc1ccccn1 [Example 13]	92
NCCCNCCc1ccccn1 [Example 14]	92

Assay: Corrosion Test 3 (dynamic wheel test; 3 wt% brine + Mentor 28; CO2 only)
Conditions: 2 ppm; 24 h, 70° C.
Experimental: as §1, §3
Corrosives: Saturated CO2 only

Compound	% Protection [%]
NCCNCCc1ccccn1 [Example 13]	0

Same assay, conditions: 10 ppm; 24 h, 70° C.

Compound	% Protection [%]
NCCNCCc1ccccn1 [Example 13]	10

Same assay, conditions: 50 ppm; 24 h, 70° C.

Compound	% Protection [%]
NCCNCCc1ccccn1 [Example 13]	19

Same assay, conditions: 250 ppm; 24 h, 70° C.

Compound	% Protection [%]
NCCNCCc1ccccn1 [Example 13]	23

Assay: Solubility Test (35 wt% solution in isopropylalcohol shaken with water, brine or heptane)
Format: physicochemical
Conditions: not given
Experimental: The active material under test was made up into a 35 wt% solution in isopropylalcohol (IPA). 0.3 ml of this solution was shaken with 10 ml of each of the liquids in which solubility is to be tested: water, 5 wt% NaCl solution (brine) and heptane. The mixture was observed after 30 minutes and 24 hours.

Compound	SOLUBILITY IN: Heptane
CCCCCCCCNCCc1ccccn1 [Example 2]	S

Same assay, conditions: 0.3 ml of 35 wt% IPA solution in 10 ml 5 wt% NaCl solution; 30 minutes and 24 hours

Compound	SOLUBILITY IN: Brine
NCCNCCc1ccccn1 [Example 13]	S
NCCCNCCc1ccccn1 [Example 14]	S
NCCNCCNCCNCCc1ccccn1 [Example 16]	S

Same assay, conditions: 0.3 ml of 35 wt% IPA solution in 10 ml heptane; 30 minutes and 24 hours

Compound	SOLUBILITY IN: Heptane
CCCCCCCCCCNCCc1ccccn1 [Example 3]	S
CCCCCCCCCCCCCCNCCc1ccccn1 [Example 5]	S
CCCCCCCCCCCCCCCCNCCc1ccccn1 [Example 6]	S
NCCNCCc1ccccn1 [Example 13]	S
NCCCNCCc1ccccn1 [Example 14]	S
NCCNCCNCCNCCc1ccccn1 [Example 16]	S/D
CCCCCCCCCCCCCCCCNCCc1ccncc1 [Example 27]	S

Same assay, conditions: 0.3 ml of 35 wt% IPA solution in 10 ml water; observed after 30 minutes and 24 hours

Compound	SOLUBILITY IN: Water
CCCCCCCCCCNCCc1ccccn1 [Example 3]	S
CCCCCCCCCCCCCCNCCc1ccccn1 [Example 5]	S
CCCCCCCCCCCCCCCCNCCc1ccccn1 [Example 6]	S
NCCNCCc1ccccn1 [Example 13]	S
NCCCNCCc1ccccn1 [Example 14]	S
NCCNCCNCCNCCc1ccccn1 [Example 16]	S
CCCCCCCCCCCCCCCCNCCc1ccncc1 [Example 27]	S

Assay: Emulsion Test (3 wt% brine / heptane)
Format: physicochemical
Set-up: Emulsion thickness after 30 mins: unit not given here
Conditions: 1 ml of 35 wt% IPA solution, 50 ml 3 wt% brine, 50 ml heptane
Experimental: 1 ml of the solutions used for Test A was shaken with 50 ml of 3 wt% brine and 50 ml of heptane for 1 minute in a 150 ml bottle. The emulsion was observed, and the time noted for the emulsion to break and form a clean interface with clear liquid layers. If at 30 minutes this had not occurred, the appearance was recorded together with the thickness of any persisting emulsion.

Compound	Time to break emulsion [min]
CCCCCCCCNCCc1ccccn1 [Example 2]	5
CCCCCCCCCCNCCc1ccccn1 [Example 3]	> 30
CCCCCCCCCCCCCCNCCc1ccccn1 [Example 5]	> 30
CCCCCCCCCCCCCCCCNCCc1ccccn1 [Example 6]	> 30
NCCNCCc1ccccn1 [Example 13]	> 30
NCCCNCCc1ccccn1 [Example 14]	> 30
NCCNCCNCCNCCc1ccccn1 [Example 16]	10
CCCCCCCCCCCCCCCCNCCc1ccncc1 [Example 27]	> 30

Same assay, conditions: 50 ml 3 wt% brine/50 ml heptane

Emulsion thickness after 30 mins	Compound
0.5	CCCCCCCCCCCCCCNCCc1ccccn1 [Example 5]
1.0	CCCCCCCCCCCCCCCCNCCc1ccccn1 [Example 6]

Compound	Emulsion thickness after 30 mins
CCCCCCCCCCCCCCCCNCCc1ccncc1 [Example 27]	3.0

Same assay, conditions: hydrocarbon layer; 50 ml 3 wt% brine/50 ml heptane

Compound	Appearance after 30 mins, hydrocarbon
CCCCCCCCNCCc1ccccn1 [Example 2]	clear
CCCCCCCCCCNCCc1ccccn1 [Example 3]	hazy
CCCCCCCCCCCCCCNCCc1ccccn1 [Example 5]	hazy
CCCCCCCCCCCCCCCCNCCc1ccccn1 [Example 6]	hazy
NCCNCCc1ccccn1 [Example 13]	clear
NCCCNCCc1ccccn1 [Example 14]	clear
NCCNCCNCCNCCc1ccccn1 [Example 16]	clear
CCCCCCCCCCCCCCCCNCCc1ccncc1 [Example 27]	clear

Same assay, conditions: water layer; 50 ml 3 wt% brine/50 ml heptane

Compound	Appearance after 30 mins, water
CCCCCCCCNCCc1ccccn1 [Example 2]	clear
CCCCCCCCCCNCCc1ccccn1 [Example 3]	hazy
CCCCCCCCCCCCCCNCCc1ccccn1 [Example 5]	hazy
CCCCCCCCCCCCCCCCNCCc1ccccn1 [Example 6]	hazy
NCCNCCc1ccccn1 [Example 13]	hazy
NCCCNCCc1ccccn1 [Example 14]	hazy
NCCNCCNCCNCCc1ccccn1 [Example 16]	clear
CCCCCCCCCCCCCCCCNCCc1ccncc1 [Example 27]	hazy
